Measured values published in US11898210B2, “Tools for assessing FimH blockers therapeutic efficiency” (ENTEROME, priority 2017, dated 2024).

Experiments:
LF82 = assay: Aggregation assay with EB8018 on positive control strain LF82; type: cell-based, Escherichia coli
Procedure: (§1) Three days before aggregation assays, bacterial strains were defrosted on TSA (Tryptone Soya Agar) plates. A first overnight culture was performed by inoculation of 3 mL of LB broth with a single colony of bacteria followed by a second overnight culture (1 mL of the first culture+4 mL LB broth).
(§2) Six concentrations of EB8018 (sample SP-0010269-017 produced by China Gateway) were tested in the aggregation assays (1 nM/10 nM/100 nM/1 μM/10 μM and 100 μM), 500× working solutions were prepared in pure DMSO by 10-fold serial dilutions from a 100 mM stock solution (65 mg EB8018+1 mL DMSO; MEB8018:649.68 g/mol). The 500× working solutions (1 μM, 10 μM, 100 μM, 1 mM, 10 mM and 100 mM) were split into aliquots and stored at −20° C., until use.
On the day of the test, an aliquot of each EB8018 500× working solution (1 μM, 10 μM, 100 μM, 1 mM, 10 mM and 100 mM) was defrosted and diluted twice in LB medium (1:20 for the first dilution and 1:25 for the second dilution) to obtain respectively six 2× working solutions (2 nM, 20 nM, 200 nM, 2 μM, 20 μM and 200 μM). The second overnight bacterial cultures were diluted in LB medium (50-fold dilution). Fifty μL of these bacteria dilutions were dispensed into 96-well plates (8 wells/strain). Fifty μL of the EB8018 2× working solutions or fresh LB or LB with 0.2% DMSO were added to the wells. Microplates were incubated for 5 hours at 37° C. under constant shaking (200 rpm). Every hour, each well was observed and the starting time of aggregation was recorded. After 5 hours of incubation, a picture was taken only in wells where an aggregation was observed. For each concentration and each time point, aggregation was evaluated by a technician.
This protocol was applied to the 113 isolated bacterial strains. On each plate, a positive control (LF82) and a negative control (LF82-ΔFimH) were used.

[1] = system: bacterial morphotypes isolated from biopsies of CD patients; assay: Aggregation to EB8018 of bacterial morphotypes isolated from MOBIDIC ileal biopsies; type: cell-based; conditions: 106 CD patients with conclusive biopsy results; 10 nM/100 nM/1 μM EB8018
Procedure: Mucosal specimens, isolated from CD patients have been collected from the MOBIDIC study. For each patient, 4 biopsies were collected, 2 or 3 for further investigations and 1 or 2 as back-up sample stored at Cell&Co (Clermont-Ferrand, France). The ileal specimens were introduced immediately into preweighed vials containing 1.8 mL of refrigerated DMEM with 15% glycerol. The vials were weighed to establish the weight of sample. Ideally, the size of the biopsies must be between 5 and 10 mg. After being frozen at −80° C., vials were sent to Cell&Co and stored at −80° C. upon receipt.
On day 1, biopsies were processed to retrieve adherent bacteria (extract A) and invasive bacteria (extract I). […]
Extracts A and I were cultivated in LB broth for 2×24 hours and on day 3, the LB overnight cultures were used for aggregation assays with EB8018 compound. […] Every hour, bacterial growth was measured and a picture of each well was taken using a SPARK10M. After 5 hours, the microplate was shacked and 10 min after, a picture was taken for aggregation assessment (aggregation was evaluated by a technician with comparison with DMSO). […]
When no aggregation was observed on extracts or in case of inconclusive evaluation (for example with observation of aggregation with the DMSO without any compound), a second biopsy was analysed following the same protocol. […]

LF82-ΔFimH = assay: Aggregation assay with EB8018 on negative control strain LF82-ΔFimH; type: cell-based, Escherichia coli; conditions: whatever the concentration tested and whatever the time of incubation
Procedure: as §1, §2
(§3) On the day of the test, an aliquot of each EB8018 500× working solution (1 μM, 10 μM, 100 μM, 1 mM, 10 mM and 100 mM) was defrosted and diluted twice in LB medium (1:20 for the first dilution and 1:25 for the second dilution) to obtain respectively six 2× working solutions (2 nM, 20 nM, 200 nM, 2 μM, 20 μM and 200 μM). The second overnight bacterial cultures were diluted in LB medium (50-fold dilution). […] Every hour, each well was observed and the starting time of aggregation was recorded. […] For each concentration and each time point, aggregation was evaluated by a technician. […]

isolated E. coli strains = assay: Aggregation assay with EB8018 on the collection of isolated bacterial strains; type: cell-based, Escherichia coli
Excerpt: 110 E. coli strains from La Girona University (Margarita Medina-Martinez Lab-Girona-Spain) and Cornell (Kenneth Simpson Lab—Ithaca—USA) have been made available through MTA. These isolated strains had been previously extracted from the stool or ileal/colonic biopsies of IBD patients or controls and had been characterised for their AIEC phenotype (for Cornell strains see Dogan B. et al., 2014; Baumgart M. et al., 2007, summarized in the Appendix). Those 110 strains have been sent to SMALTIS (Besangon, France) who is in charge of all laboratory work. An additional 3 non E. coli strains have been ordered as well as LF82 and LF82 deltaFimH that serve as respectively positive and negative controls.
as §1, §2, §3

AIEC [2] = conditions: CEABAC 10 Crohn's disease model; Sivignon 2015; cited from earlier work
cystitis murine model = conditions: Wellens et al., 2008; cited from earlier work
AIEC [3] = conditions: Bouckaert et al., 2005, 2013; cited from earlier work

Structure (SMILES)	level of aggregation (LF82; LF82, 1 nM EB8018, after 5 h of incubation)	level of aggregation (LF82; LF82, 10 nM EB8018, after 5 h of incubation)	level of aggregation (LF82; LF82, 100 nM EB8018, after 5 h of incubation)	level of aggregation (LF82; LF82, 1 μM EB8018, after 5 h of incubation)	starting time of aggregation (LF82; LF82 positive control, incubation at 37° C.) [h]	share of patients with at least one morphotype that aggregated [1] [%]	share of patients with no aggregation [1] [%]	aggregation (LF82-ΔFimH)	share of analyzable strains classified on the grey zone (low aggregation) (isolated E. coli strains; 6 concentrations, every hour for 5 hours) [%]	share of analyzable strains that did not aggregate (isolated E. coli strains; all results negative across 6 concentrations and 5 hours) [%]	share of analyzable strains that did aggregate (isolated E. coli strains; at least one + or +/− across 6 concentrations and 5 hours) [%]	effect with AIEC (AIEC [2])	concentration required for a significant bacterial load reduction (cystitis murine model)	in vitro AIEC adhesion inhibition (AIEC [3])
CC(=O)N1CCC2(CC1)c1cc(C#C[C@H]3O[C@H](CO)[C@@H](O)[C@H](O)[C@@H]3O)ccc1-c1ccc(C#C[C@H]3O[C@H](CO)[C@@H](O)[C@H](O)[C@@H]3O)cc12 [EB8018, 1-(2,7-bis(((2R,3S,4R,5S,6R)-3,4,5-trihydroxy-6-(hydroxylmethyl)tetrahydro-2H-pyran-2-yl)ethynyl)spiro[fluorene-9,4′-piperidin]-1′-yl)ethan-1-one]	strong aggregation	strong aggregation	strong aggregation	moderate aggregation	2	65	15	did not aggregate	13	44	42	–	–	–
CCCCCCCO[C@H]1O[C@H](CO)[C@@H](O)[C@H](O)[C@@H]1O [Heptylmannose]	–	–	–	–	–	–	–	–	–	–	–	no effect	millimolar concentrations are required	potent
